Measured values as given in the CheMixHub viscosity set.

Test: xn = mol fraction of the nth substance listed

CCCCN + CCC(C)O
303.15 K, 101 kPa
Details | viscosity [mPa·s]
x1 = 0.01013 | 2.438
x1 = 0.02003 | 2.41
x1 = 0.03045 | 2.381
x1 = 0.03818 | 2.364
x1 = 0.05108 | 2.332
x1 = 0.05904 | 2.313
x1 = 0.07204 | 2.283
x1 = 0.08279 | 2.26
x1 = 0.09543 | 2.229

CCCC(=O)OCC + CCCCCC
303.15 K, 101 kPa
Details | viscosity [mPa·s]
x1 = 0.1354 | 0.3067
x1 = 0.2995 | 0.3404
x1 = 0.3884 | 0.3564
x1 = 0.4879 | 0.388
x1 = 0.7244 | 0.4602

CCCCN + CCCCCC
viscosity [mPa·s]
Details | 298.15 K | 303.15 K | 313.15 K
101.3 kPa, x2 = 0.0995 | 0.4331 | – | 0.3573
101.3 kPa, x2 = 0.2009 | 0.4017 | – | 0.3331
101.3 kPa, x2 = 0.2987 | 0.3782 | – | 0.3159
101.3 kPa, x2 = 0.4003 | 0.3564 | – | 0.3002
101.3 kPa, x2 = 0.4987 | 0.3397 | – | 0.2875
101.3 kPa, x2 = 0.5995 | 0.3249 | – | 0.2767
101.3 kPa, x2 = 0.7021 | 0.3127 | – | 0.2675
101.3 kPa, x2 = 0.8015 | 0.3036 | – | 0.2608
101.3 kPa, x2 = 0.8999 | 0.2974 | – | 0.2562
101.33 kPa, x1 = 0.1342 | – | 0.266 | –
101.33 kPa, x1 = 0.2674 | – | 0.262 | –
101.33 kPa, x1 = 0.4006 | – | 0.245 | –
101.33 kPa, x1 = 0.5268 | – | 0.252 | –
101.33 kPa, x1 = 0.6349 | – | 0.281 | –
101.33 kPa, x1 = 0.7491 | – | 0.318 | –
101.33 kPa, x1 = 0.8215 | – | 0.368 | –
101.33 kPa, x1 = 0.9178 | – | 0.445 | –

CCCC(=O)OCC + CCCCCCC
viscosity [mPa·s], 101.3 kPa
Details | 308.15 K | 318.15 K
x1 = 0.0502 | 0.356 | 0.325
x1 = 0.1025 | 0.36 | 0.33
x1 = 0.2204 | 0.373 | 0.344
x1 = 0.2988 | 0.383 | 0.354
x1 = 0.3991 | 0.398 | 0.371
x1 = 0.5188 | 0.421 | 0.393
x1 = 0.6073 | 0.442 | 0.415
x1 = 0.6954 | 0.467 | 0.436
x1 = 0.8003 | 0.499 | 0.469
x1 = 0.9011 | 0.544 | 0.518
x1 = 0.9513 | 0.57 | 0.539

CCCCC(CC)COP(=O)(OCC(CC)CCCC)OCC(CC)CCCC (configuration not stated) + CCCCCCC
viscosity [mPa·s], 101 kPa
Details | x1 = 0.0981 | x1 = 0.2035 | x1 = 0.2861 | x1 = 0.4005 | x1 = 0.4721 | x1 = 0.5804 | x1 = 0.7028 | x1 = 0.8061 | x1 = 0.9053
298.15 K | 0.691 | 1.161 | 1.648 | 2.531 | 3.204 | 4.44 | 6.106 | 7.818 | 9.599
303.15 K | 0.645 | 1.071 | 1.509 | 2.267 | 2.848 | 3.886 | 5.277 | 6.674 | 8.111
308.15 K | 0.604 | 0.992 | 1.377 | 2.046 | 2.547 | 3.434 | 4.599 | 5.747 | 6.914

CCCCN + CCCCCCC
303.15 K, 101.33 kPa
Details | viscosity [mPa·s]
x1 = 0.1262 | 0.355
x1 = 0.243 | 0.345
x1 = 0.3214 | 0.358
x1 = 0.4018 | 0.358
x1 = 0.4973 | 0.362
x1 = 0.6195 | 0.381
x1 = 0.7804 | 0.434
x1 = 0.8723 | 0.462
